Experimental findings from patent publication US20250333394A1, “Tiparp Inhibitor Compounds” (AbbVie Inc., priority 2024, published 2025) are described below.

pEC50, pIC50: −log10 of the molar value. Like-named read-outs stand apart in the source and are kept apart here.

The target in one assay is PARP1 GST (Homo sapiens (Human), UniProt P09874). The assay is described as follows: TR-FRET binding assay, PARP1. The note with it: Probe 2, 2 hours incubation. The procedure, abridged: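 Serially diluted compounds, final 30 μM down to 0.5 nM, incubated 2 h at ambient temperature with GST-tagged protein/probe mix plus 1 nM Tb-anti-GST antibody. Buffer: 50 mM Tris-HCl pH 8.0, 5 mM MgCl2, 5 μM ZnCl2, 1 mM DTT, 0.15% BSA, 0.01% Triton X-100. Binding read as TR-FRET ratio.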
For orientation: Time-resolved FRET reads energy transfer from a long-lived donor to a nearby acceptor.

In a further assay the target is TIPARP GST-(TEV) (Homo sapiens (Human), UniProt Q7Z3E1). Kind of assay: TR-FRET binding assay, TIPARP. The note with it: for pIC50: TR-FRET, Probe 1, 2 hours incubation; for PARP1/TIPARP IC50 Ratio: ratio of PARP1 GST IC50 to TIPARP GST-(TEV) IC50. In a few lines: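 N-terminal GST-TEV-tagged human TIPARP with protein/probe mix in 50 mM Tris-HCl pH 8.0, 5 mM MgCl2, 5 µM ZnCl2, 1 mM DTT, 0.15% BSA, 0.01% Triton X-100, plus 1 nM Tb-anti-GST antibody. Compounds at 30 µM to 0.5 nM final, 3-fold steps. TR-FRET ratio read after 2 h at ambient temperature.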

The next assay relates to DLD-1 parent cells. The assay is described as follows: CellTiter-Glo DLD-1 parent cell assay. The format is cell-based. The note with it: 6 days, read-out: DLD-1 CTG EC50. In a few lines: (§1)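 DLD-1 parent (500 cells/well) and DLD-1 BRCA2 (−/−) (1200 cells/well) cells in RPMI 1640 with 10% FBS exposed to compounds at 30 μM to 0.5 nM (3-fold dilutions) for 6 days at 37° C. Viability read by CellTiter-Glo luminescence on day 7.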
(In general: In ATP-based viability assays light output follows the ATP content of the culture.)

A further assay deals with DLD-1 BRCA2 (−/−) cells. The assay is described as follows: CellTiter-Glo DLD-1 BRCA2 (−/−) cell assay for PARP1/2 inhibition. In kind it is cell-based. The note with it: 6 days, read-out: DLD-1 BRCA2 (−/−) CTG EC50. In a few lines:
as §1

In a further assay the test system is NCI-H1373 cells. Kind of assay: NCI-H1373 CellTiter-Glo cell assay for TIPARP inhibition. The format is cell-based, human. The conditions noted are these: 6 days, 100 nM 10-Cl-BBQ in medium, read-out: NCI-H1373 CTG EC50. The procedure, abridged:
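NCI-H1373 cells (1000/well) grown in RPMI 1640 with 10% FBS and 100 nM 10-Cl-BBQ, exposed to compounds from 30 μM to 0.5 nM final in 3-fold steps for 6 days at 37° C. Cell number read on day 7 by CellTiter-Glo luminescence.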

PARP1 GST, sequence (P09874 whole entry): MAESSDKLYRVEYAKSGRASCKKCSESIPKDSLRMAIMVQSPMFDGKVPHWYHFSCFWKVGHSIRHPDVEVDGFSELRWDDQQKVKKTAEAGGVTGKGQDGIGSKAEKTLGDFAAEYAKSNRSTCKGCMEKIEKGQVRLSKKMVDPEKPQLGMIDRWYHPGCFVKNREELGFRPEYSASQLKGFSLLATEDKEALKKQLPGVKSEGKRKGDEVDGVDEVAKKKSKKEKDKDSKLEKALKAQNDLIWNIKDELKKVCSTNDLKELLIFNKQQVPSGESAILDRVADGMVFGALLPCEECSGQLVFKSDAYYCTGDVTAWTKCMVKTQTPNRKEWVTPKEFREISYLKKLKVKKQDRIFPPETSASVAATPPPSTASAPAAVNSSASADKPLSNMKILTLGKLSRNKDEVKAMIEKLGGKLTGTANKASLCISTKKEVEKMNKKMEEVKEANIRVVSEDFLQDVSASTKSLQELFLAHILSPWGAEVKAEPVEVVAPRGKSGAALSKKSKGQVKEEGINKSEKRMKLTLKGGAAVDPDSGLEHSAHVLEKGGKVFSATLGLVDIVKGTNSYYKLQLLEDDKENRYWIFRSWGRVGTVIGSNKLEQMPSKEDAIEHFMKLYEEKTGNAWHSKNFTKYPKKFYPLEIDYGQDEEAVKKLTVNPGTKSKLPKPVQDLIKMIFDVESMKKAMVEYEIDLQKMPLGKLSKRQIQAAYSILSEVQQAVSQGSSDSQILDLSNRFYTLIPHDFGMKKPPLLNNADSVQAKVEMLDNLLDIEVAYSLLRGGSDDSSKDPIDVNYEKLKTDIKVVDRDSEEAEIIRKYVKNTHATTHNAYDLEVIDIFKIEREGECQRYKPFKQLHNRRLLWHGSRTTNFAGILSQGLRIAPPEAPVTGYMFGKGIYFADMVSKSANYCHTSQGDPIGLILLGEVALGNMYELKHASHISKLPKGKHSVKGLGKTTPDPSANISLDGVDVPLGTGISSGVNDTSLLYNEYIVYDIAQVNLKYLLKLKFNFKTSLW
TIPARP GST-(TEV), sequence (Q7Z3E1 441-657): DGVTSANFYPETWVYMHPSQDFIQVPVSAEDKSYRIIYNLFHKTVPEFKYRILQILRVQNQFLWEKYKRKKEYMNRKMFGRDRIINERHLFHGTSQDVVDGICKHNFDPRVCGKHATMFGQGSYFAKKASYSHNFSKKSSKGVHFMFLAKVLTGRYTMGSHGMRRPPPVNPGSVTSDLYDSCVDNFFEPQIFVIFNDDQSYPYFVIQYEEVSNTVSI

Take `C[C@@H]1CN(C(=O)[C@H]2C[C@@H](Cc3c[nH]c(=O)c(C(F)(F)F)c3)C2)C[C@H](C)N1c1ncc(C(C)(C)O)cn1` [Example 22, 5-{[(1s,3s)-3-{(3R,5S)-4-[5-(2-hydroxypropan-2-yl)pyrimidin-2-yl]-3,5-dimethylpiperazine-1-carbonyl}cyclobutyl]methyl}-3-(trifluoromethyl)pyridin-2(1H)-one]: the pIC50 is 5.56 on PARP1 GST and 8.55 at TIPARP GST-(TEV). At TIPARP GST-(TEV), the “PARP1/TIPARP IC50 Ratio” value is 975. Further, the pEC50 was less than 4.52 in the assay with DLD-1 parent cells (Homo sapiens, 144 h); 5.04 with DLD-1 BRCA2 (−/−) cells (Homo sapiens, 144 h); 7.57 in the assay with NCI-H1373 cells (Homo sapiens, NCI-H1373, 144 h).

On to `O=c1[nH]cc([C@H]2C[C@@H](C(=O)N3CCN(c4ncc(C(F)(F)F)cn4)CC3)C2)cc1C(F)(F)F` [Example 23, 3-(trifluoromethyl)-5-[(1s,3s)-3-{4-[5-(trifluoromethyl)pyrimidin-2-yl]piperazine-1-carbonyl}cyclobutyl]pyridin-2(1H)-one], for which the pIC50 at PARP1 GST is 6.87; at TIPARP GST-(TEV), 8.56. For the same compound, at TIPARP GST-(TEV), the “PARP1/TIPARP IC50 Ratio” value amounted to 49.6. Besides, the pEC50 was 4.88 with DLD-1 parent cells, 6.11 in the assay with DLD-1 BRCA2 (−/−) cells and 7.35 in the assay with NCI-H1373 cells.

For `C[C@@H]1CN(C(=O)[C@H]2C[C@H](c3c[nH]c(=O)c(C(F)(F)F)c3)C2)C[C@H](C)N1c1ncc(C(F)(F)F)cn1` [Example 24, 5-[(1r,3r)-3-{(3R,5S)-3,5-dimethyl-4-[5-(trifluoromethyl)pyrimidin-2-yl]piperazine-1-carbonyl}cyclobutyl]-3-(trifluoromethyl)pyridin-2(1H)-one], the pIC50 on PARP1 GST is 5.51; at TIPARP GST-(TEV), 5.73. Further, at TIPARP GST-(TEV), the “PARP1/TIPARP IC50 Ratio” value was 1.65. Besides, the pEC50 in the assay on DLD-1 parent cells is less than 4.52; in the assay with DLD-1 BRCA2 (−/−) cells, 4.63; with NCI-H1373 cells, 5.19.

Turning to `C[C@@H]1CN(c2ncc(C(F)(F)F)cn2)CCN1C(=O)[C@H]1C[C@H](c2c[nH]c(=O)c(C(F)(F)F)c2)C1` [Example 25, 5-[(1R,3r)-3-{(2R)-2-methyl-4-[5-(trifluoromethyl)pyrimidin-2-yl]piperazine-1-carbonyl}cyclobutyl]-3-(trifluoromethyl)pyridin-2(1H)-one], the pIC50 was 5.69 on PARP1 GST and 5.70 on TIPARP GST-(TEV). Also, the “PARP1/TIPARP IC50 Ratio” value at TIPARP GST-(TEV) turned out to be 1.02. Further, the results for the pEC50 in the assay with DLD-1 parent cells, with DLD-1 BRCA2 (−/−) cells and in the assay with NCI-H1373 cells were less than 4.52, less than 4.52 and 4.99, respectively.

As for `O=c1[nH]cc([C@H]2C[C@H](C(=O)N3CCN(c4ncc(C(F)(F)F)cn4)CC3)C2)cc1C(F)(F)F` [Example 26, 3-(trifluoromethyl)-5-[(1r,3r)-3-{4-[5-(trifluoromethyl)pyrimidin-2-yl]piperazine-1-carbonyl}cyclobutyl]pyridin-2(1H)-one], the pIC50 at PARP1 GST is 5.89; on TIPARP GST-(TEV), 5.79. Moreover, the “PARP1/TIPARP IC50 Ratio” value at TIPARP GST-(TEV) was found to be 0.790. For the same compound, the pEC50 in the assay on DLD-1 parent cells is less than 4.52; in the assay on DLD-1 BRCA2 (−/−) cells, less than 4.52; in the assay with NCI-H1373 cells it was 5.04.

`CC(C)(O)c1cnc(N2CCN(C(=O)[C@H]3C[C@@H](Cc4c[nH]c(=O)c(C(F)(F)F)c4)C3)CC2)nc1` [Example 27, 5-{[(1s,3s)-3-{4-[5-(2-hydroxypropan-2-yl)pyrimidin-2-yl]piperazine-1-carbonyl}cyclobutyl]methyl}-3-(trifluoromethyl)pyridin-2(1H)-one]: the pIC50 at PARP1 GST was 6.64; at TIPARP GST-(TEV), 8.63. In addition, the “PARP1/TIPARP IC50 Ratio” value on TIPARP GST-(TEV) is 98.7. The pEC50 is less than 4.52 in the assay with DLD-1 parent cells, 6.05 in the assay with DLD-1 BRCA2 (−/−) cells and 7.41 in the assay with NCI-H1373 cells.

For the compound `CC(C)(O)c1cnc(N2CCN(C(=O)[C@H]3C[C@@H](c4c[nH]c(=O)c(C(F)(F)F)c4)C3)CC2)nc1` [Example 28, 5-[(1s,3s)-3-{4-[5-(2-hydroxypropan-2-yl)pyrimidin-2-yl]piperazine-1-carbonyl}cyclobutyl]-3-(trifluoromethyl)pyridin-2(1H)-one], the values for the pIC50 on PARP1 GST and at TIPARP GST-(TEV) were 6.29 and 8.24, respectively. Besides, the “PARP1/TIPARP IC50 Ratio” value on TIPARP GST-(TEV) was 89.1. The pEC50 in the assay with DLD-1 parent cells is less than 4.52; in the assay with DLD-1 BRCA2 (−/−) cells it was 5.26; in the assay on NCI-H1373 cells, 6.76.

Turning to `O=c1[nH]cc(C[C@H]2C[C@@H](C(=O)N3CCN(c4ncc(C(F)(F)F)cn4)CC3)C2)cc1C(F)(F)F` [Example 29, 3-(trifluoromethyl)-5-{[(1s,3s)-3-{4-[5-(trifluoromethyl)pyrimidin-2-yl]piperazine-1-carbonyl}cyclobutyl]methyl}pyridin-2(1H)-one], the pIC50 at PARP1 GST is 6.58; at TIPARP GST-(TEV), 8.76. Besides, the “PARP1/TIPARP IC50 Ratio” value at TIPARP GST-(TEV) was 150. Also, the pEC50 was 5.22 in the assay on DLD-1 parent cells, 6.64 in the assay with DLD-1 BRCA2 (−/−) cells and 7.74 in the assay on NCI-H1373 cells.

For orientation: pIC50 means −log10 of the IC50, conventionally taken in molar units. Low readings indicate a large IC50, high ones a small IC50.
